Results taken from ChEMBL document CHEMBL1137857, “Design and synthesis of substituted N-methylbenzamide analogues derived from SR 48,968 as neurokinin-2 receptor antagonists” (Bioorg Med Chem Lett, 2004).

Columns and labels:
[1] = target: T1, Substance-K receptor (Cavia porcellus) (UniProt Q64077); assay: Antagonistic activity against Tachykinin receptor 2 binding to [b-Ala8] NKA(4-10) in isolated guinea pig trachea
T1 sequence (whole entry): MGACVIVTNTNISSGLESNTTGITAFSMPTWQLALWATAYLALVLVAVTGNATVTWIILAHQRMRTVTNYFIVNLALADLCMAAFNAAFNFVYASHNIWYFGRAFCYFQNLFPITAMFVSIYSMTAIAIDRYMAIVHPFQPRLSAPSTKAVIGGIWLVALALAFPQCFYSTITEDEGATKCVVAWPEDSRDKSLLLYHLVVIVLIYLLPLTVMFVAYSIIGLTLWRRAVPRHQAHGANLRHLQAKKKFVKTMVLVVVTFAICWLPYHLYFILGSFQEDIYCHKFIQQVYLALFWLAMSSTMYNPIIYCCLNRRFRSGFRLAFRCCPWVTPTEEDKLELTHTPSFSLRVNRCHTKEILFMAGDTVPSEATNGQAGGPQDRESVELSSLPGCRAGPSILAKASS

[2] = Tested for the ability to inhibit maximum contraction obtained in the presence of [b-Ala8] NKA(4-10) in isolated guinea pig trachea
[3] = target: T2, Substance-K receptor (Bos taurus, UniProt P05363); assay: Binding affinity against bovine Tachykinin receptor 2
T2 sequence (P05363 whole entry): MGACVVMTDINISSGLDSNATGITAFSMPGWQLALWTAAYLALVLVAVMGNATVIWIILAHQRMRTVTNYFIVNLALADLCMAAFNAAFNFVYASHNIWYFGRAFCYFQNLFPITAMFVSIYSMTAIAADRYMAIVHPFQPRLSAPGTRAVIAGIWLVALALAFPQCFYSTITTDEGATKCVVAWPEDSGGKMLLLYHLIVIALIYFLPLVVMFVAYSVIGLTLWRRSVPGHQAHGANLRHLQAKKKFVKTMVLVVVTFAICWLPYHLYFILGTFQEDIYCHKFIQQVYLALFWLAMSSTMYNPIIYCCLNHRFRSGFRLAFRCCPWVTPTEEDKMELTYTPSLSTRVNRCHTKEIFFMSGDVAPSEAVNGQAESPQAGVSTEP

SMILES	pKb [1]	Ki [3] [nM]	Response [2] [%]
CC(=O)Nc1ccccc1C(=O)N(C)C[C@H](CCN1CCC(O)(c2ccccc2)CC1)c1ccc(Cl)c(Cl)c1	< 8	–	98.3
CN(C[C@H](CCN1CCC(O)(c2ccccc2)CC1)c1ccc(Cl)c(Cl)c1)C(=O)c1ccccc1	–	–	93.3
CN(C[C@H](CCN1CCC(O)(c2ccccc2)CC1)c1ccc(Cl)c(Cl)c1)C(=O)c1ccccc1NC(=O)CBr	< 8	–	97.1
CN(C[C@H](CCN1CCC(O)(c2ccccc2)CC1)c1ccc(Cl)c(Cl)c1)C(=O)c1ccccc1N=C=S	8.5	–	95.5
CC(=O)Nc1cccc(C(=O)N(C)C[C@H](CCN2CCC(O)(c3ccccc3)CC2)c2ccc(Cl)c(Cl)c2)c1	< 8	–	96.3
CC(=O)NC1(c2ccccc2)CCN(CCC(CN(C)C(=O)c2ccccc2)c2ccc(Cl)c(Cl)c2)CC1 (single isomer, unassigned) [SAREDUTANT]	9.1	0.5	–
CN(C[C@H](CCN1CCC(O)(c2ccccc2)CC1)c1ccc(Cl)c(Cl)c1)C(=O)c1ccccc1[N+](=O)[O-]	8.5	–	92.7
CN(C[C@H](CCN1CCC(O)(c2ccccc2)CC1)c1ccc(Cl)c(Cl)c1)C(=O)c1cccc(NC(=O)CBr)c1	< 8	–	98

The next lines start with results.

pKb [1]	Ki [3] [nM]	SMILES	Response [2] [%]
8.3	–	CN(C[C@H](CCN1CCC(O)(c2ccccc2)CC1)c1ccc(Cl)c(Cl)c1)C(=O)c1ccc(NC(=O)CBr)cc1	96
9.4	–	CN(C[C@H](CCN1CCC(O)(c2ccccc2)CC1)c1ccc(Cl)c(Cl)c1)C(=O)c1cccc(N)c1	97.4
< 8	–	CN(C[C@H](CCN1CCC(O)(c2ccccc2)CC1)c1ccc(Cl)c(Cl)c1)C(=O)c1cccc(N=C=S)c1	95.8
–	1	CN(CC(CCN1CCC(O)(c2ccccc2)CC1)c1ccc(Cl)c(Cl)c1)C(=O)c1ccccc1 (stereo unspecified)	–
8.55	–	CN(C[C@H](CCN1CCC(O)(c2ccccc2)CC1)c1ccc(Cl)c(Cl)c1)C(=O)c1ccc([N+](=O)[O-])cc1	98
8.4	–	CC(=O)Nc1ccc(C(=O)N(C)C[C@H](CCN2CCC(O)(c3ccccc3)CC2)c2ccc(Cl)c(Cl)c2)cc1	96.6
9.7	–	CN(C[C@H](CCN1CCC(O)(c2ccccc2)CC1)c1ccc(Cl)c(Cl)c1)C(=O)c1ccc(F)cc1	94.7
9.1	–	CN(C[C@H](CCN1CCC(O)(c2ccccc2)CC1)c1ccc(Cl)c(Cl)c1)C(=O)c1ccc(N)cc1	95.9
9.4	–	CN(C[C@H](CCN1CCC(O)(c2ccccc2)CC1)c1ccc(Cl)c(Cl)c1)C(=O)c1ccccc1N	98.2
< 8	–	CN(C[C@H](CCN1CCC(O)(c2ccccc2)CC1)c1ccc(Cl)c(Cl)c1)C(=O)c1ccc(N=C=S)cc1	97.6
< 8	–	CN(C[C@H](CCN1CCC(O)(c2ccccc2)CC1)c1ccc(Cl)c(Cl)c1)C(=O)c1cccc([N+](=O)[O-])c1	98.6
